# Key:
# [1] = tested on: Pseudomonas aeruginosa; assay: Antimicrobial activity, well diffusion method; assay type: cell-based; conditions: 5mg/ml of sample around well (6 mm), mean ± Standard deviation
# Source text: (§1) Mouth microbial representatives including unicellular fungi; Candida albicans (RCMB 05382), Candida glabrata (RCMBA 05386), Candida parapsilosis (RCMBA 06002), Candida tropicalis (RCMB 05384), Gram-positive bacteria; Lactobacillus acidophilus (RCMBA 4267), Streptococcus gordonii (RCMBA 2004), Streptococcus mutans (RCMBA 4131), and Gram-negative bacteria; Pseudomonas aeruginosa (RCMBA 1002) were obtained from the Regional Center for Mycology and Biotechnology (RCMB), Al-Azhar University, Cairo, Egypt, as test organisms. Antimicrobial activity was determined by the well diffusion method. Petri plates contained 20 ml of Nutrient (for bacteria) or Malt extract (for fungi). Agar medium were seeded with 1-3 day cultures of microbial inoculums (1-2 X 10^7 CFU/ml). […] The assessment of antimicrobial activity was based on measurement of the diameter of the inhibition zone formed around the well.
# [2] = tested on: Streptococcus gordonii; assay: Antimicrobial activity, well diffusion method; assay type: cell-based; conditions: 5mg/ml of sample around well (6 mm), mean ± Standard deviation
# Source text: as §1
# [3] = tested on: Streptococcus mutans; assay: Antimicrobial activity, well diffusion method; assay type: cell-based; conditions: 5mg/ml of sample around well (6 mm), mean ± Standard deviation
# Source text: as §1
# [4] = tested on: Lactobacillus acidophilus; assay: Antimicrobial activity, well diffusion method; assay type: cell-based; conditions: 5mg/ml of sample around well (6 mm), mean ± Standard deviation
# Source text: as §1
# [5] = tested on: S. mutans; assay: In-vitro activity in combination with Coe-Comfort tissue conditioner; assay type: cell-based, Streptococcus mutans
# [6] = tested on: Pseudomonas aeruginosa; assay: MIC determination, micro-dilution method; assay type: cell-based; conditions: read-out: Minimum Inhibitory Concentration
# Source text: (§2) Mouth microbial representatives including unicellular fungi; Candida albicans (RCMB 05382), Candida glabrata (RCMBA 05386), Candida parapsilosis (RCMBA 06002), Candida tropicalis (RCMB 05384), Gram-positive bacteria; Lactobacillus acidophilus (RCMBA 4267), Streptococcus gordonii (RCMBA 2004), Streptococcus mutans (RCMBA 4131), and Gram-negative bacteria; Pseudomonas aeruginosa (RCMBA 1002) were obtained from the Regional Center for Mycology and Biotechnology (RCMB), Al-Azhar University, Cairo, Egypt, as test organisms.
# (§3) The minimum inhibitory concentration (MIC) was determined by micro-dilution method using serially diluted (2 folds) extract and isolated compound. MIC of the extract was determined by dilution of extract and isolated compound of concentrations of 0.0-1000 µg/ml. Equal volume of each extract and nutrient broth were mixed in a test tube. Specifically 0.1 ml of standardized inoculum (1-2 X 10^7 CFU/ml) was added in each tube. The tubes were incubated at 37°C for 24-48 h. Two control tubes containing the growth medium, saline and the inoculum were maintained for each test batch. The lowest concentration (highest dilution) of the extract that produced no visible microbial growth (no turbidity) when compared with the control tubes were regarded as MIC.
# [7] = tested on: Streptococcus gordonii; assay: MIC determination, micro-dilution method; assay type: cell-based; conditions: read-out: Minimum Inhibitory Concentration
# Source text: as §2, §3
# [8] = tested on: Streptococcus mutans; assay: MIC determination, micro-dilution method; assay type: cell-based; conditions: read-out: Minimum Inhibitory Concentration
# Source text: as §2, §3
# [9] = tested on: Lactobacillus acidophilus; assay: MIC determination, micro-dilution method; assay type: cell-based; conditions: read-out: Minimum Inhibitory Concentration
# Source text: as §2, §3
# [10] = tested on: Lactobacillus acidophilus; assay: In-vitro activity in combination with Coe-Comfort tissue conditioner, CFU count; assay type: cell-based; conditions: for No. colony-forming units (CFU): mixed with Coe-Comfort
# [11] = tested on: Streptococcus gordonii; assay: In-vitro activity in combination with Coe-Comfort tissue conditioner; assay type: cell-based
smiles,measurement,setting,value
"[H]/N=C(\N/C(=N/[H])NCCCCCCNC(=N)NC(=N)Nc1ccc(Cl)cc1)Nc1ccc(Cl)cc1 [Chlorhexidine, reference compound]",Diameter of inhibition zone,[1],20.1 ± 0.19 mm
same,Diameter of inhibition zone,[2],22.1± 0.51 mm
same,Diameter of inhibition zone,[3],23.5 ± 0.34 mm
same,Diameter of inhibition zone,[4],26.2± 0.42 mm
same,concentration giving total growth inhibition,[5],15.63 µg/mL
same,MIC,[6],3.9 µg/mL
same,MIC,[7],0.98 µg/mL
same,MIC,[8],0.49 µg/mL
same,MIC,[9],0.06 µg/mL
same,concentration giving total growth inhibition,[10]; in combination with Coe-comfort tissue conditioner,15.63 µg/mL
same,No. colony-forming units (CFU),[10]; concentration 000.24 µg/ml,6.4 x 10^5
same,No. colony-forming units (CFU),[10]; concentration 000.49 µg/ml,2.3 x 10^5
same,No. colony-forming units (CFU),[10]; concentration 000.98 µg/ml,3.1 x 10^4
same,No. colony-forming units (CFU),[10]; concentration 001.95 µg/ml,5.4 x 10^3
same,No. colony-forming units (CFU),[10]; concentration 003.90 µg/ml,1.9 x 10^3
same,No. colony-forming units (CFU),[10]; concentration 007.81 µg/ml,7.9 x 10^2
same,No. colony-forming units (CFU),[10]; concentration 015.63 µg/ml,00.00
same,No. colony-forming units (CFU),[10]; concentration 031.25 µg/ml,00.00
same,No. colony-forming units (CFU),[10]; concentration 062.50 µg/ml,00.00
same,concentration giving total growth inhibition,[11],3.9 µg/mL
